Data as given in patent US20040224884A1, “Methods of screening for apoptosis-controlling agents for bone anabolic therapies and uses thereof” (priority 1998, published 2004).

Legend:
[1] = test system: osteoblastic cells derived from murine calvaria; assay: Etoposide-induced apoptosis of osteoblastic cells, trypan blue uptake; type: cell-based
Experimental: Osteoblastic cells derived from murine calvaria were pretreated with the sterols for 1 hour before the addition of the pro-apoptotic agent, etoposide. Apoptosis was determined after 6 hours by trypan blue uptake (Jilka et al, J. Bone and Min. Res. 13:793:802, 1998). * indicates p<0.05 versus etoposide alone, by analysis of variance (ANOVA) (Student-Newman-Keuls method).
Osteoblastic cells derived from murine calvaria were pretreated for 1 hour with the pure receptor antagonist ICI182,780 (10^−7 M) before the addition of the test agents (10^−8 M). Apoptosis was induced and quantified as described in FIG. 3. * indicates p<0.05 versus etoposide alone, by ANOVA (Student-Newman-Keuls method).
In this experiment, osteoblastic cells were derived from murine calvaria and were pretreated with the sterols for 1 hour before the addition of the pro-apoptotic agent, etoposide.
In these experiments, cells were pretreated with the indicated concentrations of the various compounds for 1 hour, in the absence or presence of the androgen receptor antagonist flutamide, before the addition of the proapoptotic agent etoposide. Apoptosis was determined after 6 hours by trypan blue uptake as described in FIG. 3.

wild type HeLa cells = assay: Etoposide-induced apoptosis in wild type HeLa cells; type: cell-based, human; conditions: 10^−8 M, 1 h; etoposide 5×10^−5 M, 6 hour
Excerpt: (§1) CMV promoter alone and CMV promoter-driven cDNA for mERα or mErβ were stably transfected into HeLa cells. […] Cells were trypsinized, pelleted and trypan blue positive cells enumerated.
(§2) In this experiment, instead of calvaria cells, human HeLa cells which contain undetectable, if any, estrogen receptor were used. HeLa cells were stably transfected with either a CMV promoter-driven cDNA for the murine estrogen receptor-alpha (mERα) or a CMV promoter-driven cDNA for the murine estrogen receptor-beta (mERβ). […] Cells were trypsinized, pelleted and trypan blue positive cells were enumerated.

[2] = target: T1, murine estrogen receptor-alpha (mERα) (Mus musculus, UniProt P19785); assay: Etoposide-induced apoptosis in HeLa cells stably transfected with mERα; type: cell-based, human; conditions: 10^−8 M, 1 h; etoposide 5×10^−5 M, 6 hour
T1 construct: expressed in transfected cells
T1 sequence (P19785 1-599): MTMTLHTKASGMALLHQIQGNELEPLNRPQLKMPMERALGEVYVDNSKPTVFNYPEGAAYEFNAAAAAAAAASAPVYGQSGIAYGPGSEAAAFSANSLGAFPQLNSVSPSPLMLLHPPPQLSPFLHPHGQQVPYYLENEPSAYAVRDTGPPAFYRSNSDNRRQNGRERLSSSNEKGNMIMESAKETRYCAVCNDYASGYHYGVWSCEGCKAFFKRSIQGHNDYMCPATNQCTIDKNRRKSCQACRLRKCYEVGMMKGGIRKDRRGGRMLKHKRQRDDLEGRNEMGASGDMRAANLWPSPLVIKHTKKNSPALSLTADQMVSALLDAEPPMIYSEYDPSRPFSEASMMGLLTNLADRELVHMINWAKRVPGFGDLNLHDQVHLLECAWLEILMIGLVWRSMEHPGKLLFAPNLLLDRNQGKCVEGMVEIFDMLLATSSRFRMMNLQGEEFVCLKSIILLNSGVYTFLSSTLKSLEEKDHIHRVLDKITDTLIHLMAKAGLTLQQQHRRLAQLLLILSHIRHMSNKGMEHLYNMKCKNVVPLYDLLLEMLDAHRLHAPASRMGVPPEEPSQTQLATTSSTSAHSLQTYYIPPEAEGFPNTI
Excerpt: as §1, §2

[3] = test system: extracellular signal regulated kinases (ERKs) 1 and 2; assay: Western blot of phosphorylated ERK1/2 in MLO-Y4 cells; type: cell-based, murine
Experimental: (§3) MLO-Y4 osteocytic cells were incubated for 25 minutes in serum -free medium. […] Cell lysates were prepared and proteins were separated by electrophoresis in polyacrylamide gels and transferred to PVDF membranes. Western blotting was performed using a specific antibody recognizing phosphorylated ERKs 1 and 2, followed by reblotting with an antibody recognizing total ERKs. Blots were developed by enhanced chemiluminescence.
MLO-Y4 cells were incubated for 25 minutes in serum-free medium in the presence or absence of 50 μM PD98059. […] Cell lysates were prepared and proteins were separated by electrophoresis in polyacrylamide gels and transferred to PVDF membranes. Western blotting was performed using a specific antibody recognizing phosphorylated ERKs 1 and 2, followed by reblotting with an antibody recognizing total ERKs. Blots were developed by enhanced chemiluminescence.
as §3, with “In this experiment, MLO-Y4” for “MLO-Y4”, “serum-free” for “serum -free”, “extracellular signal regulated kinases” for “ERKs”, “extracellular signal regulated kinases.” for “ERKs.”, “chemiluminescence. […] This effect is too rapid to be accounted for by the classical mechanism of estrogen action.” for “chemiluminescence.”
In this experiment, MLO-Y4 osteocytic cells were incubated for 25 minutes in serum-free medium in the presence or absence of 50 μM PD98059. […] Cell lysates were prepared and proteins were separated by electrophoresis in polyacrylamide gels and transferred to PVDF membranes. Western blotting was performed using a specific antibody recognizing phosphorylated extracellular signal regulated kinases 1 and 2, followed by reblotting with an antibody recognizing total extracellular signal regulated kinases. Blots were developed by enhanced chemiluminescence.

C[C@@]12CCC[C@H]1[C@@H]1CCc3cc(O)ccc3[C@H]1CC2 [estratriene-3-ol]
potency in inhibiting apoptosis relative to 17β estradiol [1]: as potent a s 17β estradiol
inhibition of etoposide-induced osteoblastic cell apoptosis ([1]; pretreated 1 hour before etoposide, apoptosis after 6 hours by trypan blue uptake): inhibition of etoposide-induced osteoblastic cell apoptosis was demonstrated
anti-apoptotic effect on osteoblastic cells after pretreatment with ICI182,780 ([1]; test agent 10^−8 M, ICI182,780 10^−7 M, 1 h pretreatment): abrogated
effect on etoposide-induced apoptosis of wild type HeLa cells (wild type HeLa cells): none of the three compounds had any effect
inhibition of etoposide-induced apoptosis in HeLa cells transfected with estrogen receptor α [2]: potently inhibited
activation (phosphorylation) of ERKs ([3]; 10^−8 M, 5, 15 or 30 minutes): activated
ability to activate ERKs in the presence of PD98059 ([3]; 10^−8 M, 5 minutes, 50 μM PD98059): abrogated
